Patent US10167262B2, “Herbicidal substituted 3-arylpyrazoles” (FMC CORPORATION, priority 2014, dated 2019)

test system: large (Lg) crabgrass (Digitaria sanguinalis); experiment: Test A pre-/postemergence greenhouse herbicide test, visual injury rating 0-100; format: in vivo; settings: Postemergence, 125 g ai/ha
Source text: (§1) Seeds of plant species selected from barnyardgrass (Echinochloa crus-galli), large (Lg) crabgrass (Digitaria sanguinalis), giant foxtail (Setaria faberii), morningglory (Ipomoea spp.), pigweed (Amaranthus retroflexus), velvetleaf (Abutilon theophrasti), wheat (Triticum aestivum), and corn (Zea mays) were planted into a blend of loam soil and sand and treated preemergence with a directed soil spray using test chemicals formulated in a non-phytotoxic solvent mixture which included a surfactant. At the same time these species were also treated with postemergence applications of test chemicals formulated in the same manner. Plants ranged in height from 2 to 10 cm and were in the one- to two-leaf stage for the postemergence treatment. Treated plants and untreated controls were maintained in a greenhouse for approximately 10 days, after which time all treated plants were compared to untreated controls and visually evaluated for injury. Plant response ratings, summarized in Table A, are based on a 0 to 100 scale where 0 is no effect and 100 is complete control. A dash (-) response means no test result.

| SMILES | Plant response rating (0 to 100 scale), Crabgrass, Large |
| --- | --- |
| Clc1cc(Cl)cc(-c2n[nH]cc2C2(c3ccccc3)SCCS2)c1 [Compound 69] | 0 |

same assay, conditions: Postemergence, 500 g ai/ha

| SMILES | Plant response rating (0 to 100 scale), Crabgrass, Large |
| --- | --- |
| Clc1cc(Cl)cc(-c2n[nH]cc2C2(c3ccccc3)SCCS2)c1 [Compound 69] | 0 |

same assay, conditions: Preemergence, 125 g ai/ha

| SMILES | Crabgrass, Large plant response rating (0 = no effect, 100 = complete control) |
| --- | --- |
| Clc1cc(Cl)cc(-c2n[nH]cc2C2(c3ccccc3)SCCS2)c1 [Compound 69] | 0 |

same assay, conditions: Preemergence, 500 g ai/ha

| SMILES | Plant response rating (0 to 100 scale), Crabgrass, Large |
| --- | --- |
| Clc1cc(Cl)cc(-c2n[nH]cc2C2(c3ccccc3)SCCS2)c1 [Compound 69] | 0 |

test system: barnyardgrass (Echinochloa crus-galli); experiment: as above; format: in vivo; settings: Postemergence, 125 g ai/ha
Source text: as §1

| SMILES | Plant response rating (0 to 100 scale), Barnyardgrass |
| --- | --- |
| Clc1cc(Cl)cc(-c2n[nH]cc2C2(c3ccccc3)SCCS2)c1 [Compound 69] | 0 |

same assay, conditions: Postemergence, 500 g ai/ha

| SMILES | Plant response rating (0 to 100 scale), Barnyardgrass |
| --- | --- |
| Clc1cc(Cl)cc(-c2n[nH]cc2C2(c3ccccc3)SCCS2)c1 [Compound 69] | 0 |

same assay, conditions: Preemergence, 125 g ai/ha

| SMILES | Barnyardgrass plant response rating (0 = no effect, 100 = complete control) |
| --- | --- |
| Clc1cc(Cl)cc(-c2n[nH]cc2C2(c3ccccc3)SCCS2)c1 [Compound 69] | 0 |

same assay, conditions: Preemergence, 500 g ai/ha

| SMILES | Plant response rating (0 to 100 scale), Barnyardgrass |
| --- | --- |
| Clc1cc(Cl)cc(-c2n[nH]cc2C2(c3ccccc3)SCCS2)c1 [Compound 69] | 0 |

test system: wheat (Triticum aestivum); experiment: as above; format: in vivo; settings: Postemergence, 125 g ai/ha
Source text: as §1

| SMILES | Plant response rating (0 to 100 scale), Wheat |
| --- | --- |
| Clc1cc(Cl)cc(-c2n[nH]cc2C2(c3ccccc3)SCCS2)c1 [Compound 69] | 0 |

same assay, conditions: Postemergence, 500 g ai/ha

| SMILES | Plant response rating (0 to 100 scale), Wheat |
| --- | --- |
| Clc1cc(Cl)cc(-c2n[nH]cc2C2(c3ccccc3)SCCS2)c1 [Compound 69] | 0 |

same assay, conditions: Preemergence, 125 g ai/ha

| SMILES | Wheat plant response rating (0 = no effect, 100 = complete control) |
| --- | --- |
| Clc1cc(Cl)cc(-c2n[nH]cc2C2(c3ccccc3)SCCS2)c1 [Compound 69] | 0 |

test system: corn (Zea mays); experiment: as above; format: in vivo; settings: Postemergence, 125 g ai/ha
Source text: as §1

| SMILES | Plant response rating (0 to 100 scale), Corn |
| --- | --- |
| Clc1cc(Cl)cc(-c2n[nH]cc2C2(c3ccccc3)SCCS2)c1 [Compound 69] | 0 |

same assay, conditions: Postemergence, 500 g ai/ha

| SMILES | Plant response rating (0 to 100 scale), Corn |
| --- | --- |
| Clc1cc(Cl)cc(-c2n[nH]cc2C2(c3ccccc3)SCCS2)c1 [Compound 69] | 0 |

same assay, conditions: Preemergence, 125 g ai/ha

| SMILES | Corn plant response rating (0 = no effect, 100 = complete control) |
| --- | --- |
| Clc1cc(Cl)cc(-c2n[nH]cc2C2(c3ccccc3)SCCS2)c1 [Compound 69] | 0 |

same assay, conditions: Preemergence, 500 g ai/ha

| SMILES | Plant response rating (0 to 100 scale), Corn |
| --- | --- |
| Clc1cc(Cl)cc(-c2n[nH]cc2C2(c3ccccc3)SCCS2)c1 [Compound 69] | 0 |

test system: giant foxtail (Setaria faberii); experiment: as above; format: in vivo; settings: Postemergence, 125 g ai/ha
Source text: as §1

| SMILES | Plant response rating (0 to 100 scale), Foxtail, Giant |
| --- | --- |
| Clc1cc(Cl)cc(-c2n[nH]cc2C2(c3ccccc3)SCCS2)c1 [Compound 69] | 0 |

same assay, conditions: Postemergence, 500 g ai/ha

| SMILES | Plant response rating (0 to 100 scale), Foxtail, Giant |
| --- | --- |
| Clc1cc(Cl)cc(-c2n[nH]cc2C2(c3ccccc3)SCCS2)c1 [Compound 69] | 0 |

same assay, conditions: Preemergence, 125 g ai/ha

| SMILES | Foxtail, Giant plant response rating (0 = no effect, 100 = complete control) |
| --- | --- |
| Clc1cc(Cl)cc(-c2n[nH]cc2C2(c3ccccc3)SCCS2)c1 [Compound 69] | 0 |

same assay, conditions: Preemergence, 500 g ai/ha

| SMILES | Plant response rating (0 to 100 scale), Foxtail, Giant |
| --- | --- |
| Clc1cc(Cl)cc(-c2n[nH]cc2C2(c3ccccc3)SCCS2)c1 [Compound 69] | 0 |

test system: morningglory (Ipomoea spp.); experiment: as above; format: in vivo; settings: Postemergence, 125 g ai/ha
Source text: as §1

| SMILES | Plant response rating (0 to 100 scale), Morningglory |
| --- | --- |
| Clc1cc(Cl)cc(-c2n[nH]cc2C2(c3ccccc3)SCCS2)c1 [Compound 69] | 0 |

same assay, conditions: Postemergence, 500 g ai/ha

| SMILES | Plant response rating (0 to 100 scale), Morningglory |
| --- | --- |
| Clc1cc(Cl)cc(-c2n[nH]cc2C2(c3ccccc3)SCCS2)c1 [Compound 69] | 0 |

same assay, conditions: Preemergence, 125 g ai/ha

| SMILES | Morningglory plant response rating (0 = no effect, 100 = complete control) |
| --- | --- |
| Clc1cc(Cl)cc(-c2n[nH]cc2C2(c3ccccc3)SCCS2)c1 [Compound 69] | 0 |

same assay, conditions: Preemergence, 500 g ai/ha

| SMILES | Plant response rating (0 to 100 scale), Morningglory |
| --- | --- |
| Clc1cc(Cl)cc(-c2n[nH]cc2C2(c3ccccc3)SCCS2)c1 [Compound 69] | 0 |

test system: velvetleaf (Abutilon theophrasti); experiment: as above; format: in vivo; settings: Postemergence, 125 g ai/ha
Source text: as §1

| SMILES | Plant response rating (0 to 100 scale), Velvetleaf |
| --- | --- |
| Clc1cc(Cl)cc(-c2n[nH]cc2C2(c3ccccc3)SCCS2)c1 [Compound 69] | 20 |

same assay, conditions: Postemergence, 500 g ai/ha

| SMILES | Plant response rating (0 to 100 scale), Velvetleaf |
| --- | --- |
| Clc1cc(Cl)cc(-c2n[nH]cc2C2(c3ccccc3)SCCS2)c1 [Compound 69] | 80 |

same assay, conditions: Preemergence, 125 g ai/ha

| SMILES | Velvetleaf plant response rating (0 = no effect, 100 = complete control) |
| --- | --- |
| Clc1cc(Cl)cc(-c2n[nH]cc2C2(c3ccccc3)SCCS2)c1 [Compound 69] | 0 |

same assay, conditions: Preemergence, 500 g ai/ha

| SMILES | Plant response rating (0 to 100 scale), Velvetleaf |
| --- | --- |
| Clc1cc(Cl)cc(-c2n[nH]cc2C2(c3ccccc3)SCCS2)c1 [Compound 69] | 20 |

test system: pigweed (Amaranthus retroflexus); experiment: as above; format: in vivo; settings: Postemergence, 125 g ai/ha
Source text: as §1

| SMILES | Plant response rating (0 to 100 scale), Pigweed |
| --- | --- |
| Clc1cc(Cl)cc(-c2n[nH]cc2C2(c3ccccc3)SCCS2)c1 [Compound 69] | 30 |

same assay, conditions: Postemergence, 500 g ai/ha

| SMILES | Plant response rating (0 to 100 scale), Pigweed |
| --- | --- |
| Clc1cc(Cl)cc(-c2n[nH]cc2C2(c3ccccc3)SCCS2)c1 [Compound 69] | 80 |

same assay, conditions: Preemergence, 125 g ai/ha

| SMILES | Pigweed plant response rating (0 = no effect, 100 = complete control) |
| --- | --- |
| Clc1cc(Cl)cc(-c2n[nH]cc2C2(c3ccccc3)SCCS2)c1 [Compound 69] | 0 |

same assay, conditions: Preemergence, 500 g ai/ha

| SMILES | Plant response rating (0 to 100 scale), Pigweed |
| --- | --- |
| Clc1cc(Cl)cc(-c2n[nH]cc2C2(c3ccccc3)SCCS2)c1 [Compound 69] | 40 |
